Measured values as given in patent publication US7915009B2, “Activation and inhibition of the immune system” (The Mathilda and Terence Kennedy Institute of Rheumatology …, priority 1999, dated 2011).
Entries after “also recorded” stand apart in the source; their conditions may differ. Where a SMILES comes first, the peptide text is derived from it. The star is where a group is joined. Cbz = O=C(OCc1ccccc1)*; OtBu = CC(C)(C)O*

How the values were obtained:
[1] = system: mature DC; assay: Cytokine production of DC treated with PSI (ELISA); assay type: cell-based, human; conditions: PSI 1 μM
Procedure: FIG. 9. Cytokine productions of DC treated with vehicle or PSI. Mature DC was treated with vehicle or PSI (1 μM) as described above. Each DC and allo-lymphocytes were plated at 2×10^5 cells per well on a 96 well plate and stimulated with PMA (10 nM) or left unstimulated for 48 hr. Supernatants were analysed for IL-6, IL-8, IL-12 and TNFα by ELISA.
(§1) Cells were pre-treated with vehicle or 1 μM of PSI for 4 h, or infected with adenoviral vectors for 2 h. PSI-treated DC were then directly used in experiments whereas infected cells were further cultured for 2 days to allow overexpression of the relevant protein to occur. 24 h after stimulation of the cells, culture supernatants were collected and kept frozen. Cytokine levels in cell culture supernatants were measured by standard 2 or 3 layer sandwich ELISA techniques using specific monoclonal and polyclonal antibodies for TNFα, IL-4, IL-6, IL-8, IL-12 and IFNγ. Antibody pairs and standards for these assays have been purchased from Pharmingen, with the exception of IL-12 reagents that were gifted from the Genetics Institute (Boston, USA).

[2] = system: allo-lymphocytes; assay: Surface antigens on allo-lymphocytes cultured with PSI-treated DC (FACScan); assay type: cell-based, human
Procedure: FIG. 7. […] Lymphocytes were cultured for 6 days as the same conditions with allo-MLR experiment using vehicle treated DC (green line), or PSI (1 μM) treated DC (red line). Each lymphocytes were phenotyped with MoAbs, CD3, CD25 (PE conjugated; Pharmingen), (CD54) (PE conjugated; Serotec), CD50 (FITC conjugated; Serotec) and analysed by FACScan.
(§2) For FACS staining, cells were first harvested. For adherent cells where surface receptors need to be intact, a warm 2% EDTA in PBS solution was used for 20 min at 37° C. After cells were in solution, they were washed once and then resuspended in ice-cold FACS washing buffer. All subsequent incubations were performed at 4° C. For each analysis, 5×10^5 cells were incubated with the relevant antigen-specific antibody or isotype control for 30 min and then washed twice with FACS washing buffer. Cells were then examined by flow cytometry. cells were ready for analysis on a FACScan flow cytometer (Becton and Dickinson) by using the CellQuest (Becton Dickinson). Directly conjugated monoclonal antibodies to HLA-DR, HLA-A,B,C, CD80, CD86, CD3, CD14 and CD25 were purchased by Pharmingen, San Diego, USA).

[3] = system: mature DC; assay: Allogeneic MLR with PSI-treated DC, 3H-TdR uptake; assay type: cell-based, human; conditions: day 6
Procedure: FIG. 2. Immunostimulatory capacity of DC treated with the proteosome inhibitor Cbz-Ile-Glu(O-tert-bytyl)-Ala-leucinal (PSI). Mature DC was treated with PSI (0.1 μM: ▴), (0.5 μM: ▪), (1, μM: ●) or without PSI (∘) for 4 h. After wash, different numbers of each category of DC and […] of allo-lymphocytes were plated on a 96 well plate. Proliferation was determined at day 6 using ^3H-TdR uptake assay. (Each point represents mean+/−SEM from five separate experiments).
To assay the immunostimulatory capacity of non-irradiated or irradiated (3000 rad from a ^137Cs source) DC, uninfected, adenovirus-infected, LPS-treated or monocyte-conditioned medium-treated DC were cultured in graded doses with 1×10^5 of allogeneic elutriated T cells in quadruplicate in a 96-well flat-bottom microtiter plate (Falcon). Proliferation was measured on day 5 by thymidine incorporation after a 16 h pulse with [^3H] thymidine (0.5 μCi/well; Amersham Life Science, UK).
(§3) PSI is an inhibitor of proteosome activity and as such is capable of inhibiting induced IκB degradation and subsequent NF-κB activation. We used PSI to examine the function of NFκB in dendritic cell (DC) activity particularly in relation to antigen presentation and activation of T cells. We have previously shown that PSI is capable of inhibiting NFκB activation at concentrations up to 1 μM. To test the effect of PSI on DC viability mature DC were incubated with concentrations of PSI, ranging from 0.1 μM to 5 μM. […] To assess the role of NFκB in DC function, mature DC were incubated with 0.3 μM, 0.5 μM or 1 μM PSI for […] and the cells washed. As PSI is an activated peptide that binds irreversibly to the proteosomes, the function of the DC can be assessed over the 6 day period of the MLR despite the short period of drug exposure.

[4] = system: NFκB; conditions: previously shown by the inventors; cited from earlier work
[5] = system: allo-lymphocytes; assay: Cytokine production of allo-lymphocytes co-cultured with PSI-treated DC (ELISA); assay type: cell-based, human
Procedure: FIG. 8. Cytokine production of allo-lymphocytes co-cultured with vehicle treated or PSI treated DC. Mature DC was treated with vehicle or PSI (1 μM) as described above. Allo-lymphocytes and each DC were plated at 2×10^5 cells per well on a 96 well plate and stimulated with PMA (10 nM) or left unstimulated for […].
as §1

[6] = system: allo-lymphocytes; assay: Allo-MLR with mixtures of PSI-treated and vehicle-treated DC; assay type: cell-based, human; conditions: judged from slope of proliferative response curves, PSI 1 μM
Procedure: FIG. 5. PSI pre-treated DC inhibit the growing ability of lymphocytes in allo-MLR. Mature DC was treated with PSI as described above. After washing, each DC was mixed to make different compositions: vehicle treated DC only (∘), ¼ number of PSI treated DC mixed with ¾ vehicle treated DC (●), ⅛ number of PSI treated DC mixed with […] vehicle treated DC (▪), or PSI treated DC only (▴). Graded number of each mixture and 10^5 cells of allo-lymphocytes were plated on a 96 well plate. Proliferation was determined at day 6 by ^3H-TdR uptake assay.
(§4) A means of detecting whether PSI-DC were generating inhibitory effects is to culture T cells with a mixture of PSI treated and untreated DC. […] Next we investigated whether exposure to PSI-DC would induce long term unresponsiveness in the T cells. T cells were exposed to normal or PSI-DC as previously described after which the T cells were collected and were treated with a DC for a second time and the proliferative response measured (FIG. 6). […] This would indicate that the effects of exposure to PSI-DC are prolonged and the T cells acquire a non-responsive or anergic state.

[7] = system: mature DC; assay: Surface antigen expression on PSI-treated DC (FACScan); assay type: cell-based, human
Procedure: FIG. 3. Effect of PSI on the expression of surface antigens was studied using monoclonal antibodies, HLA-DR, CD86 (PE conjugated); Pharmingen, San Diego, Calif.). on day 6 after PSI treatment, populations of untreated (green line), PSI (0.1 μM) treated (blue dotted line), PSI (1 μM) treated (red dotted line) were phenotyped with the MoAbs listed above and analysed on FACScan (Becton Dickinson).
as §2

[8] = system: mature DC; assay: Cell viability of DC treated with PSI, propidium iodide staining (FACS); assay type: cell-based, human; conditions: PSI for 4 h, analysed 6 days after treatment
Procedure: FIG. 1. Cell viability of DC treated with PSI. Mature DC was either left untreated, or treated with various doses of PSI for 4 h. After wash, cells were cultured in RPMI 1640 supplemented as described without monocyte condition medium. 6 days after treatment, cells were resuspended in PBS containing 10 μg/ml. Of propidium iodide PI and analysed on FACS scan.
as §3

[9] = system: allo-lymphocytes; assay: Re-stimulation of allo-lymphocytes pre-cultured with PSI-treated DC; assay type: cell-based, human
Procedure: FIG. 6. Impaired response of allo-lymphocytes pre-cultured with PSI treated or non-treated DC. Lymphocytes were co-cultured with 1/10 number of PSI treated (●, ▴) or non-treated DC (∘,Δ). After 2 days, each DC were removed by CD83, CD86 coated plate. Lymphocytes were cultured for another 4 days using vehicle treated DC (∘,●), or PSI (1 μM) treated DC (Δ,▴). Proliferation was determined by ^3H-TdR uptake assay. (Each point represents mean+/−SEM from three separate experiments).
as §4
Further questions as to the mechanism of the lack of the T cell proliferative response were addressed. It could simply be due to lack of immunogenicity of the DC, or alternatively it could be due to the induction of a form of immunological tolerance or of immune regulation. The mechanism was analysed further by coculture experiments, adding PSI treated DC to untreated DC, and analysing the effect of the mixture on unprimed T cells in the MLR. […] Similar effects have been reported in a variety of tolerance models Zanders et al (1983) Nature 303, 625-627; Zanders et al (1985) J. Immunol. 15, 302-305; Park et al (1997) Eur. J. Immunol. 15, 302-305; and Waldmann & Cubbold (1998) Ann. Rev. Immunol. 16, 619-644 and so we asked whether PSI treated DC induced immunological tolerance. This was assessed by first exposing allogeneic T cells to PSI treated DC for 2 days, and then removing them, by panning with anti CD83 and anti CD86. […]

[10] = 6 days with PSI (1 μM) treated DC
[11] = 1 μM PSI, 6 days after treatment

Question: Which results are given for `CC[C@H](C)[C@H](NC(=O)OCc1ccccc1)C(=O)N[C@@H](CCC(=O)OC(C)(C)C)C(=O)N[C@@H](C)C(=O)N[C@H](C=O)CC(C)C` [PSI, Cbz-Ile-Glu(O-tert-bytyl)-Ala-leucinal] (Cbz-IE(OtBu)AL-aldehyde)?
Answer: IL-6 expression from PSI-DC during the MLR [1]: to a lesser extent, IL-6 expression was inhibited; also recorded: not changed; IL-8 production from PSI-DC during the MLR [1]: unaffected; also recorded: not changed; IL-12 production by PSI treated DC [1]: Reductions; TNF expression from PSI-DC during the MLR [1]: inhibited; also recorded: Reductions; yields of T cells after culture with PSI treated DC ([2]; 6 days culture): lower; CD3 expression on T lymphocytes [2, 10]: reduced expression; CD11a (LFA-1) expression on T lymphocytes [2, 10]: only marginally reduced; also recorded: some reduction; CD25 expression on T lymphocytes [2, 10]: virtually abolished; CD54 (ICAM-1) expression on T lymphocytes [2, 10]: reduced to a degree similar to CD3; also recorded: some reduction; T cell proliferation in allogeneic MLR ([3]; DC pretreated with PSI 0.1 μM): no detectable effect; T cell proliferation in allogeneic MLR ([3]; DC pretreated with PSI 0.5 μM): failure of the T cells to proliferate; T cell proliferation in allogeneic MLR ([3]; DC pretreated with PSI 1 μM): failure of the T cells to proliferate; concentrations at which PSI inhibits NFκB activation [4]: up to 1 μM; IFNγ production by T cells in response to PSI-DC ([5]; PSI 1 μM): not produced; IL-2 production by T cells in response to PSI-DC ([5]; PSI 1 μM): not produced; IL-4 production by T cells in response to PSI-DC ([5]; PSI 1 μM): unaffected; also recorded: not changed; inhibition of IFNγ production of T cells exposed to PSI treated DC ([5]; PSI treated DC): more than 90%; inhibition of IL-2 production of T cells exposed to PSI treated DC ([5]; PSI treated DC): more than 90%; reduction of proliferative response by ⅛ or ¼ PSI-DC mixed with untreated DC [6]: 3-5 fold; CD86 expression on DC [7, 11]: reduced, to virtually background levels; also recorded: marked reduction; HLA-DR expression on DC [7, 11]: major reduction; also recorded: marked reduction; HLA-DR expression on DC ([7]; 0.1μ PSI, 6 days after treatment): minimal effect; CD80 expression on DC ([7]; PSI-treated DC): downregulation; PSI concentrations showing some toxicity (propidium iodide staining) [8]: > 5 µM; response of T cells stimulated with PSI-DC prior to normal DC ([9]; 2 days PSI-DC, then 4 days normal DC): unable to respond; also recorded: lack of response; response of T cells exposed to PSI-DC on the second round after normal DC ([9]; PSI 1 μM): failed to proliferate; response of T cells to two rounds of PSI-DC ([9]; PSI 1 μM): did not respond
